Several values for one entry are separate records, joined by “and”; a condition that tells them apart may be missing. Equal values may be shown once.
Assay: in vitro permeation test, Gummer permeation vertical cells
Type: in vitro ADME, mice
Details: for ciclopirox permeated: 75.0 μL of composition of Example 4 on hairless mice skin, individual experiments test 1-6
Procedure: An in vitro permeation test was performed by applying the film forming solution according to the Example 4 to excised hairless mice skin, obtained from dorsal or abdominal skin of male hairless mice (strain MF1-hr-hr/OIa, Nossan srl, Correzzana, Milan, Italy) aged 7-10 weeks. Portions of the skin (ca 9 cm^2), after removal of adhering fat and subcutaneous tissues, were placed as a barrier between the two compartment of Gummer permeation vertical cells (Gummer, C. L. et al. The skin penetration cell: design update. Int. J. Pharm. 1987, 40, 101-104). The receiving phase was introduced into the lower compartment and 75.0 μL of the composition according to the Example 4 were regularly distributed on the exposed skin surface. At predetermined time intervals (1, 2, 3, 4 and 5 hours) 5.0 mL of the receiving solution were collected for analysis and immediately replaced by an equal volume of fresh buffer. The experiment was replicated 6 times.

## Cc1cc(C2CCCCC2)n(O)c(=O)c1 [ciclopirox]
  permeation through mice skin, conclusion: able to permeate the mice skin
H 1
  ciclopirox permeated: 0.001548 mg/cm^2 and 0.002964 mg/cm^2 and 0.001542 mg/cm^2 and 0.001617 mg/cm^2 and 0.00487 mg/cm^2 and 0.02038 mg/cm^2
H 2
  ciclopirox permeated: 0.01134 mg/cm^2 and 0.05066 mg/cm^2 and 0.01241 mg/cm^2 and 0.0445 mg/cm^2 and 0.04696 mg/cm^2 and 0.1182 mg/cm^2
H 3
  ciclopirox permeated: 0.05601 mg/cm^2 and 0.102 mg/cm^2 and 0.04902 mg/cm^2 and 0.1745 mg/cm^2 and 0.2725 mg/cm^2 and 0.4084 mg/cm^2
H 4
  ciclopirox permeated: 0.1146 mg/cm^2 and 0.1226 mg/cm^2 and 0.08552 mg/cm^2 and 0.2757 mg/cm^2 and 0.5273 mg/cm^2 and 0.7623 mg/cm^2
H 5
  ciclopirox permeated: 0.1721 mg/cm^2 and 0.1401 mg/cm^2 and 0.1517 mg/cm^2 and 0.328 mg/cm^2 and 0.7212 mg/cm^2 and 1.025 mg/cm^2

Reference: patent US20100062083A1, “DERMAL FILM-FORMING LIQUID FORMULATIONS FOR DRUG RELEASE TO SKIN” (POLICHEM S.A., priority 2007, published 2010)
